Source: patent US11971383B1, “Enhanced 3D porous architectured electroactive devices via impregnated porogens” (Iowa State University Research Foundation, Inc., priority 2018, dated 2024)

Target: T1, Acetylcholinesterase (ACHE) (Electrophorus electricus, UniProt O42275)
T1 construct: purchased Sigma Aldrich
Assay: ACHE biosensor inhibition versus incubation time (decrease in amperometric oxidation current)
Assay type: biochemical
Settings: 1 μM paraoxon, 5 mM ACTH, 400 mV
Protocol: Sodium chloride (NaCl) was purchased from Sigma-Aldrich, ground using mortar and pestle, and filtered into different sizes with 8 in wire cloth sieves. Acetylcholinesterase (ACHE) from Electrophorus electricus was purchased from Sigma Aldrich as lyophilized powder (200-1000 units per mg) and was used without any further purification. ACHE ink aliquots were made by dissolving the enzyme (2 mg) in 1 mL of 50% glycerol and 50% 1× phosphate-buffer solution (0.1 M PBS, pH 7.0), aliquoted into 25 μL, and stored in a −80° C. freezer until use. […]. All other chemicals and solvents were purchased from Sigma-Aldrich and were used without any other purification unless otherwise stated. Water was filtered through a B-Pure Water Purification system (resistivity, […]).
SIIML electrodes were functionalized with ACHE using 1-ethyl-3-(3-dimethylaminopropyl) carbodiimide and N-hydroxysuccinimide (EDC/NHS) chemistry, which facilitated the functionalization of carboxyl groups to the amines within the ACHE enzyme.^39 In summary, the CO2 laser annealed SIIML electrodes were dipped in a solution of EDC/NHS mixture (50 mM EDC, 50 mM NHS) and incubated for 30 min on a tilter mixer. The electrodes were then rinsed with 1×PBS, excess water was blown off but not completely dried as the surface remained still “wetted”, this allowed for easier pipetting onto the slightly hydrophobic graphene surface. […]

T1 sequence (O42275 24-633): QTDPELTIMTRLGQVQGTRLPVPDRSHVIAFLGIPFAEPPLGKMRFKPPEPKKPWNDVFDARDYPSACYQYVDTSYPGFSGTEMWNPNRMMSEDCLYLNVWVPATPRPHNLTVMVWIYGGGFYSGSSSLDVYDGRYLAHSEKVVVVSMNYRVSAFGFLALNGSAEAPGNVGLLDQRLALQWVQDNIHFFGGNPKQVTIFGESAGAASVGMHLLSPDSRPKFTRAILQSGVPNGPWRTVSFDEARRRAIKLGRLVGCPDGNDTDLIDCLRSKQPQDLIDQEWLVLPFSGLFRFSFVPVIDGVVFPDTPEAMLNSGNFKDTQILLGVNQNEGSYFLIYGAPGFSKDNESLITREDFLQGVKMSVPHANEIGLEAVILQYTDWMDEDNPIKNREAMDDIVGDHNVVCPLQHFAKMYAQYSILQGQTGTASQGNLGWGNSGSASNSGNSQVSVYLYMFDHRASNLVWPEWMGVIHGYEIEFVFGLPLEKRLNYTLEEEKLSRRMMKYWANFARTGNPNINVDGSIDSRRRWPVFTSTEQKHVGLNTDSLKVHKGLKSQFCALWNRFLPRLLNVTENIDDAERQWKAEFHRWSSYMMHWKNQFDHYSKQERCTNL

## CCOP(=O)(OCC)Oc1ccc([N+](=O)[O-])cc1 [paraoxon]
After 100 seconds incubation, large standard deviations
  inhibition of the sensor (percent of ACHE inhibited): roughly 50%
After 500 seconds incubation, low standard deviation
  inhibition of the sensor (percent of ACHE inhibited): about 90%
